# In US20190054019A1, “METHODS FOR USING REGULATORS FOR INCREASING THE EXPRESSION OR ACTIVATION OF P53 AND/OR REGULATORS FOR REDUCING OR INHIBITING THE EXPRESSION OF P63-ALPHA, FOR THE TREATMENT OF NON-ALCOHOLIC FATTY LIVER DISEASE (NAFLD) AND/OR NON-ALCOHOLIC STEATOHEPATITIS (NASH)” (Universidade de Santiago de Compostela, priority 2015, published 2019):
# How the values were obtained:
# [1] = system: mice of the C57/B6 strain fed with a HFD; experiment: Doxorubicin in C57/B6 mice fed HFD (60% fat); format: in vivo; conditions: 0.6 mg/kg i.p. twice per week, two months
# Procedure: Subsequently, mice were administered a dose of 0.6 mg/kg intra-peritoneally twice per week during a further period of two months.
# HepG2 = experiment: Accumulation of lipids induced by oleic acid in human hepatocytes (HepG2); format: cell-based; conditions: 48 h
# Procedure: The hepatocyte cell line of human origin HepG2 was treated with bovine serum albumin (BSA, which represents the control group), oleic acid (OA) and 50 nM oleic acid+doxorubicin for 48 h.
# [2] = Doxorubicin intraperitoneal for 5 days in Swiss mice on standard diet: body weight; format: in vivo, mice of the Swiss strain
# HepG2 cells = experiment: Response of HepG2 cells (control or p53 negative dominant) to etoposide; format: cell-based, human
# From the text: FIG. 9. Effect of p53 silencing in HepG2 cells. (A) Efficiency of the down-regulation of p53 in HepG2 cells transfected with adenoviruses expressing GFP alone or adenoviruses encoding a p53 negative dominant. (B) Oil red staining in HepG2 cells treated with etoposide at different concentrations. (C) Representative western blot of protein levels of peIF2α and Xbp1 in HepG2 cells non-treated and treated with etoposide. *p<0.05, n=4 per group.
# HepG2 cells were infected with adenoviruses expressing GFP alone or adenoviruses encoding a p53 negative dominant and treated with etoposide.
# HepG2 cells were infected with adenoviruses expressing GFP alone or adenoviruses encoding a p53 negative dominant. Infection efficiency was assessed by decreased expression of phosphor-p53 (pp53) (FIG. 9A). In order to investigate the response of control cells and cells with silenced p53, we challenged them to etoposide, a well established compound that induces stress.
# [3] = 0.6 mg/kg i.p. twice per week, 2 months
# [4] = 0.6 mg/kg, two months, vs control vehicle
# [5] = HepG2 cells treated with etoposide
smiles,measurement,setting,value
COc1cccc2c1C(=O)c1c(O)c3c(c(O)c1C2=O)C[C@@](O)(C(=O)CO)C[C@@H]3O[C@H]1C[C@H](N)[C@H](O)[C@H](C)O1 [doxorubicin],body weight,[1],reduced their body weight significantly
same,hepatic tryglicerides,[1],significantly reduced
same,body composition: muscle mass,HFD-induced obese mice; [3],without altering the muscle mass
same,body composition: quantity of fat,HFD-induced obese mice; [3],reduce quantity of fat
same,levels of troponine (marker of cardiovascular damage),"HFD-induced obese mice; 0.6 mg/kg i.p., serum",fails to significantly increase
same,hepatic damage (histological study),"HFD-induced obese mice; 0.6 mg/kg, two months",reduced hepatic damage
same,"liver expression of inflammatory markers TNF-α, arginase, IL-6, NOS2 and F480","HFD-induced obese mice; 0.6 mg/kg, two months, mRNA",reduces the expression
same,level of non-esterified fatty acids in the liver,HFD-induced obese mice; [4],increased
same,level of triglycerides in the liver,HFD-induced obese mice; [4],reduced
same,"liver protein levels of ER stress genes pIRE, XBP1, CHOP, pJNK","HFD-induced obese mice; 0.6 mg/kg, two months, western blot",reduced the protein levels
same,body weight,"HFD-induced obese mice; all studied dosages (0.15, 0.3, 0.6, 1.25 mg/kg) i.p. twice per week, 2 months",significant loss of body weight
same,amount of lipids in the cells vs cells treated with oleic acid,HepG2; 50 nM oleic acid+doxorubicin,significant decrease in the amount of lipids
same,body weight change,"[2]; 0.3, 0.6, 1.25, 2.5 and 5 mg/kg intraperitoneal, 1 injection/day, dose dependent",significant loss of weight
same,dosages capable of reducing the body weight significantly,[2]; intraperitoneal,≥ 0.6 mg/kg
COc1cc([C@@H]2c3cc4c(cc3[C@@H](O[C@@H]3O[C@@H]5CO[C@@H](C)O[C@H]5[C@H](O)[C@H]3O)[C@H]3COC(=O)[C@H]23)OCO4)cc(OC)c1O [etoposide],ER stress markers peIF2α and XBP1 in cells with silenced p53 vs control cells,HepG2 cells; [5],higher levels
same,amount of lipid droplets in p53 dominant negative-infected cells vs control cells,HepG2 cells; [5],increased amount of lipid droplets
same,lipid deposition (oil red staining),"HepG2 cells; HepG2 cells, dose-dependent",increased lipid deposition
CCCCCCCC/C=C\CCCCCCCC(=O)O [oleic acid],amount of lipids in the cells vs BSA control,HepG2; oleic acid,significantly increases the amount of lipids
